Results published in patent US20260306680A1, “RADIOLABELED COMPOUNDS TARGETING THE PROSTATE-SPECIFIC MEMBRANE ANTIGEN” (PROVINCIAL HEALTH SERVICES AUTHORITY, priority 2022, published 2026).
Like-named read-outs stand apart in the source and are kept apart here. One block for each compound: values may come before it.

How the values were obtained:
[1] = Ex vivo biodistribution in mice bearing LNCaP tumor xenografts; design: species or system mouse (male NOD-scid IL2Rg^null (NSG)); details: mouse, iv, 1 h post-injection, mean ± SD
Description: All imaging and biodistribution studies used male NOD-scid IL2Rg^null (NSG) mice and conducted according to the guidelines established by the Canadian Council on Animal Care and approved by Animal Ethics Committee of the University of British Columbia. For tumor inoculations, mice were anesthetized via inhalation of 2% isoflurane in oxygen and implanted subcutaneously with 5×10^6 LNCaP cells below the left shoulder. Imaging and biodistribution studies were performed only after tumors grew to 5-8 mm in diameter.
For PET/CT imaging studies, approximately 5 MBq of the ^18F-labeled tracer was injected through the tail vein. While for ex vivo biodistribution studies, mice were injected with around 2 MBq of the ^18F-labeled tracer through the tail vein. Mice were allowed to recover and roam freely in the cages after injecting the tracer. At 45 min post-injection, imaging mouse were sedated again and positioned on the scanner. A 10 min CT scan was conducted first to allow for localization and attenuation correction for later reconstruction of PET images. A 10 min PET image was acquired following CT scan. Heating pads were used during the entire procedure to keep the mice warm and circulate the blood. At 1 h post-injection, all mice for biodistribution study were euthanized with blood drawn from heart, and all tissues of interest were collected, rinsed with PBS, blotted dry, weighed, and counted using an automated gamma counter. The uptake in each organ/tissue was normalized to the injected dose and expressed as the percentage of the injected dose per gram of tissue (% ID/g).
Representative maximum intensity projection PET images of ^18F-KLF1007-pyridine-BF3 and ^18F-KL01040 acquired at 1 h post-injection from LNCaP tumor-bearing mice is enumerated in Table 4 and shown in FIG. 1. Representative maximum intensity projection PET images of ^18F-KL01120 and ^18F-KL01130 acquired at 1 h post-injection from LNCaP tumor-bearing mice is also enumerated in Table 5 and shown in FIG. 2 (^18F-KL1120) and enumerated in Table 6 and shown in FIG. 3 (^18F-KL01130).

[2] = system: glutamate carboxypeptidase II; details: cited from earlier work

tissue uptake at 1 h ([1]; adrenal glands, read-out: Adrenal Glands uptake): 1.05 ± 0.26 %ID/g
tissue uptake at 1 h ([1]; blood, read-out: Blood uptake): 1.96 ± 0.37 %ID/g
tissue uptake at 1 h ([1]; bone, read-out: Bone uptake): 0.6 ± 0.18 %ID/g
tissue uptake at 1 h ([1]; brain, read-out: Brain uptake): 0.11 ± 0.08 %ID/g
tissue uptake at 1 h ([1]; fat, read-out: Fat uptake): 0.61 ± 0.15 %ID/g
tissue uptake at 1 h ([1]; heart, read-out: Heart uptake): 0.56 ± 0.14 %ID/g
tissue uptake at 1 h ([1]; kidneys, read-out: Kidneys uptake): 33.2 ± 10.1 %ID/g
tissue uptake at 1 h ([1]; lacrimal glands, read-out: Lacrimal Glands uptake): 0.23 ± 0.06 %ID/g
tissue uptake at 1 h ([1]; liver, read-out: Liver uptake): 0.58 ± 0.15 %ID/g
tissue uptake at 1 h ([1]; lncap tumor, read-out: LNCaP Tumor uptake): 11.2 ± 2.06 %ID/g
tissue uptake at 1 h ([1]; lungs, read-out: Lungs uptake): 1.56 ± 0.4 %ID/g
tissue uptake at 1 h ([1]; muscle, read-out: Muscle uptake): 0.29 ± 0.06 %ID/g
tissue uptake at 1 h ([1]; pancreas, read-out: Pancreas uptake): 0.38 ± 0.05 %ID/g
tissue uptake at 1 h ([1]; salivary glands, read-out: Salivary Glands uptake): 0.79 ± 0.11 %ID/g
tissue uptake at 1 h ([1]; seminal glands, read-out: Seminal Glands uptake): 0.26 ± 0.06 %ID/g
tissue uptake at 1 h ([1]; small intestine, read-out: Small Intestine uptake): 2.54 ± 0.5 %ID/g
tissue uptake at 1 h ([1]; spleen, read-out: Spleen uptake): 0.83 ± 0.41 %ID/g
tissue uptake at 1 h ([1]; stomach, read-out: Stomach uptake): 0.2 ± 0.07 %ID/g
tissue uptake at 1 h ([1]; tail, read-out: Tail uptake): 1.31 ± 0.41 %ID/g
tissue uptake at 1 h ([1]; testes, read-out: Testes uptake): 0.47 ± 0.07 %ID/g
tissue uptake at 1 h ([1]; thyroid, read-out: Thyroid uptake): 0.6 ± 0.06 %ID/g
SMILES: O=C(O)CCC[C@H](NC(=O)N[C@@H](CCCCNC(=O)[C@H](Cc1c2ccccc2cc2ccccc12)NC(=O)[C@H]1CC[C@H](CNC(=O)[C@H](CCCCNC(=O)c2ccc(F)nc2)NC(=O)CN(CC(=O)O)CC(=O)O)CC1)C(=O)O)C(=O)O [^18F-KL01040]

SMILES: O=C(O)CC[C@H](NC(=O)N[C@@H](CCCCNC(=O)c1ccc(F)nc1)C(=O)O)C(=O)O [^18F-DCFPyL]
liver uptake ([2]; reduces sensitivity for detecting metastatic lesions in liver): high

SMILES: O=C(O)CC[C@H](NC(=O)N[C@@H](CCCCNC(=O)[C@H](Cc1ccc2ccccc2c1)NC(=O)c1ccc(CNC(=O)[C@H](CCC(=O)O)NC(=O)[C@H](CCC(=O)O)NC(=O)c2ccc(F)nc2)cc1)C(=O)O)C(=O)O [^18F-PSMA-1007]
nonspecific uptake level in most normal tissues ([2]; compared to ^18F-DCFPyL): even higher
